The values below come from patent US11090288B2, “Pyrazole derivatives and their uses thereof” (Canadian Blood Services, priority 2013, dated 2021).

The structures appear in SMILES notation.

One experiment has as its system monocytes (phagocytosis of anti-D opsonized RBCs). Kind of experiment: Monocyte monolayer assay (MMA), phagocytosis of anti-D opsonized RBCs. The format is cell-based. As to conditions: Monocyte; percent inhibition of phagocytosis of anti-D opsonized RBCs by monocytes; compound at 5 micromolar. Here is the method: Monocyte monolayer assay. The monocyte monolayer assay (MMA) was performed as previously described (Rampersad, G. C.; Suck, G; Sakac, D; Fahim, S; Foo, A; Denomme, G. A.; Langler, R. F.; Branch, D. R. Transfusion 2005, 45, 384; Foo, A. H.; Fletcher, S. P.; Langler, R. F.; Porter, C. H.; Branch, D. R. Transfusion 2007, 47, 290; Branch, D. R.; Gallagher, M. T.; Mison, A. P.; Sy Siok Hian, A. L.; Petz, L. D. Br. J. Haematol. 1984, 56, 19; Gallagher, M. T.; Branch, D. R.; Mison, A.; Petz, L. D. Exp. Hematol. 1983, 11, 82) in the above 4 references with slight modification. Briefly, peripheral blood mononuclear cells (PBMC) containing monocytes were isolated by ficoll-paque density gradient centrifugation and incubated overnight at 37° C. under 5% CO2 atmosphere. PBMCs were then layered onto chamber slides (Labtek, Thermo Scienctific) and incubated at 37° C., 5% CO2 for 1 hr to allow the monocytes to adhere. Following an aspiration of non-adherent cells, compounds were added at various concentrations to the adhered cells and further incubated for an additional hour. The compounds were aspirated and the monocytes treated with anti-D opsonized RBCs at the aforementioned incubation conditions for an additional 2 hrs. The slides were analyzed under phase microscopy for phagocytosis. A minimum of 100 monocytes were counted per sample and the number of observed RBCs that were phagocytosed were counted and normalized to a positive control to generate a phagocytosis index. Percent inhibition of phagocytosis was calculated as the percentage of control phagocytosis (phagocytosis of opsonized RBCs with compound diluent only).
Turning to `Cc1cc(OCC2CCCN2Cc2ccccc2)n(-c2ccccc2)n1` (stereo not shown) [Compound 53, 5-((1-Benzylpyrrolidin-2-yl)methoxy)-3-methyl-1-phenyl-1H-pyrazole], the inhibition (as a rule, how much of the control response was suppressed) at 5 µM fell in the range of 5 to 15%.

Consider `Cc1cc(OCc2cc(C)nn2-c2ccccc2)n(CC2CCCCC2)n1` [Compound 37, 1-(Cyclohexylmethyl)-3-methyl-5-((3-methyl-1-phenyl-1H-pyrazol-5-yl)methoxy)-1H-pyrazole], for which the inhibition at 5 µM fell in the range of 33 to 45%. On the same count and under the same terms, under `Cc1cc(COc2cc(C)nn2-c2ccc([N+](=O)[O-])cc2)n(-c2ccccc2)n1` [Compound 28, 3-Methyl-5-({[3-methyl-1-(4-nitrophenyl)-1H-pyrazol-5-yl]oxy}methyl)-1-phenyl-1H-pyrazole] stands 2 to 16%; under `Cc1cc(CNCc2cc(C)nn2-c2ccccc2)n(-c2ccccc2)n1` [Compound 18, Bis((3-methyl-1-phenyl-1H-pyrazol-5-yl)methyl)amine], 20%. On the same count and under the same terms, under `Cc1cc(COc2cc(C)nn2-c2ccccc2)n(-c2ccccc2)n1` [Compound 15, 3-Methyl-5-((3-methyl-1-phenyl-1H-pyrazol-5-yl)methoxy)-1-phenyl-1H-pyrazole] stands ≤ 14%; under `Cc1cc(CCc2cc(C)nn2-c2ccccc2)n(-c2ccccc2)n1` [Compound 14, 1,2-Bis(3-methyl-1-phenyl-1H-pyrazol-5-yl)ethane], ≤ 16%; under `Cc1cc(OCCOc2cc(C)nn2-c2ccccc2)n(-c2ccccc2)n1` [Compound 20, 1,2-Bis(3-methyl-1-phenyl-1H-pyrazol-5-yloxy)ethane], 4 to 14%. The compound `Cc1cc(O)n(Cc2cc(C)nn2-c2ccccc2)n1` [Compound 50, 3-methyl-1-((3-methyl-1-phenyl-1H-pyrazol-5-yl)methyl)-1H-pyrazol-5-ol] displayed an inhibition at 5 µM of 27 to 58%. On to `Cc1cc(COc2cc(C)nn2C2CCCC2)n(-c2ccccc2)n1` [Compound 41, 1-Cyclopentyl-3-methyl-5-((3-methyl-1-phenyl-1H-pyrazol-5-yl)methoxy)-1H-pyrazole], for which the inhibition at 5 µM was ≤ 17%. Still for that read-out and setting: next, `Cc1cc(OCc2cc(C)nn2-c2ccccc2)n(CCN)n1` [Compound 47, 2-(3-Methyl-5-((3-methyl-1-phenyl-1H-pyrazol-5-yl)methoxy)-1H-pyrazol-1-yl)ethanamine]: 5 to 33%. In the case of `Cc1cc(OCc2cc(C)nn2-c2ccccc2)n(CC(=O)O)n1` [Compound 48, 2-(3-Methyl-5-((3-methyl-1-phenyl-1H-pyrazol-5-yl)methoxy)-1H-pyrazol-1-yl)acetic acid], the inhibition at 5 µM fell in the range of 4 to 10%.

Regarding `Cc1cc(Oc2c(N)c(C)nn2-c2ccccc2)n(-c2ccccc2)n1` [Compound 24, 3-Methyl-5-(3-methyl-1-phenyl-1H-pyrazol-5-yloxy)-1-phenyl-1H-pyrazol-4-amine], the inhibition at 5 µM stood at 2%. Same read-out and setting: next, `Cc1cc(Oc2c([N+](=O)[O-])c(C)nn2-c2ccccc2)n(-c2ccccc2)n1` [Compound 23, 3-Methyl-5-(3-methyl-1-phenyl-1H-pyrazol-5-yloxy)-4-nitro-1-phenyl-1H-pyrazole]: 12%.

Still in this experiment, the particulars now being: percent inhibition of phagocytosis of anti-D opsonized RBCs by monocytes; compound at 5 micromolar.
Turning to `Cc1cc(OCc2cc(C)nn2-c2ccccc2)[nH]n1` [Compound 49], the “Activity @ 5 micromolar (%)” value is given as 6-26%.

A further experiment concerns preventive mouse model of ITP (anti-platelet antibody, rat anti-mouse CD41). Kind of experiment: Preventive mouse model of ITP, compound given subcutaneously. As to conditions: SC twice per day (2 sites, 2 mg/ml) starting at Day 0; anti-CD41 1.4 μg daily; FIG. 2. It counts as in vivo, Mice. Here is the method: Mice were treated as above with an anti-platelet antibody (rat anti-mouse CD41 using 1.4 μg constant dose) daily starting at Day 0 to induce ITP. Compound 50 was given SC twice per day (2 sites, 2 mg/ml) starting at Day 0. IVIg (1 g/kg) was given on Day 2 for comparison as this is considered the therapeutic dose of IVIg. Treatment groups: n=5 mice per group; control (untreated): n=3. Statistical significance by one-way ANOVA with Dunnett posthoc test and is indicated: ** p<0.01; *** p<0.001.
Turning to `Cc1cc(O)n(Cc2cc(C)nn2-c2ccccc2)n1` [Compound 50, 3-methyl-1-((3-methyl-1-phenyl-1H-pyrazol-5-yl)methyl)-1H-pyrazol-5-ol], the “Amelioration of ITP” value was “efficacious for the amelioration of ITP”.

Another experiment shares this test system. Kind of experiment: Preventive mouse model of ITP, compound given IP or IV. As to conditions: i.p. (40 mg/kg) or i.v. (16 mg/kg); anti-CD41 1.4 μg daily from Day 0; FIG. 1. It counts as in vivo, Mice (BALB/c). Here is the method:
Mice (BALB/c) were treated with an anti-platelet antibody (rat anti-mouse CD41 using 1.4 μg constant dose) daily starting at Day 0 to induce ITP. Platelet counts at Day 2, when a nadir is reached in this model, are shown for untreated mice, mice treated with anti-CD41 only, mice treated with IVIG (1 g/kg) (positive control for ITP amelioration), and mice treated with Compound 50 i.p. (40 mg/kg) or i.v. (16 mg/kg). Treatment groups: n=5 mice per group; control: n=3. Statistical significance by one-way ANOVA with Dunnett posthoc test and is indicated: ** p<0.01; *** p<0.001.
As for `Cc1cc(O)n(Cc2cc(C)nn2-c2ccccc2)n1` [Compound 50, 3-methyl-1-((3-methyl-1-phenyl-1H-pyrazol-5-yl)methyl)-1H-pyrazol-5-ol], the “Amelioration of ITP (platelet counts at Day 2)” value is on record as “ameliorates ITP”.
